Measured values as given in patent publication US20250213593A1, “Use of Derivatives based on Sarsasapogenin Structure and Pharmaceutical Compositions thereof” (BEIJING PHYTOVENT PHARMACEUTICAL TECHNOLOGY CO., LTD., priority 2022, published 2025).
Values after ≈ are worked out from the molar mass of the structure shown. “Also recorded” adds a separate entry of the source.

Assays:
[1] = tested on: transgenic AD mice (C57BL/6J background); test: Light/dark box test of AD mice; format: in vivo, mouse; conditions: 6 months after administration
Excerpt: The principle of the light/dark box test is: the mice have a natural tendency to darkness; and after the mice was put into a light box, the mice would spontaneously enter a connected dark box. However, in this experiment, the dark box was equipped with an electrical stimulation mechanism, and the mice would be shocked when they entered the dark box.

[2] = tested on: C57BL/6 mice modeled with MPTP; test: PD mouse model (MPTP); format: in vivo; conditions: 80 mpk, 15 days; vs model group, T-test
Protocol: • Experimental and analytical method: mice of C57BL/6 strain were used in this experiment, which were divided into 5 groups, including a normal control group (no injection of MPTP), a model group (modeling with MPTP), and treatment groups of three small molecules (Embodiment 13B, Embodiment 25A, and Embodiment 25B). The drug was administered at the same time as modeling was made. The modeling lasted for 5 days, followed by 30 mpk intraperitoneal injection till lasting for 15 days, and lasted for 15 days at 80 mpk. At the endpoint, the brain was soaked and fixed in PFA after cardiac perfusion, and transferred to sucrose dehydration after complete fixation, and OCT embedding and sectioning were used for TH staining after complete dehydration. The detection indicator was the number of TH-positive cells in the substantia nigra. The more positive cells, the better the protection effect of small molecules against MPTP damage. • Results: there were 12 mice in each group, and the statistical results were shown in FIG. 50, T-test, **: p<0.01, #: p<0.05.

[3] = tested on: Raji-Luc hematologic tumor cells in NOD-Scid immunodeficient mice; test: NOD-Scid mice inoculated with hematologic tumor cells Raji-Luc; conditions: 100 mpk by gavage once a day
[4] = tested on: C57BL/6 mouse MCAO damage model; test: Mice middle cerebral artery occlusion (MCAO) damage model; format: in vivo; conditions: 24 h after surgery, vs MCAO model group
Protocol: Animal grouping and treatment: according to body weight on Day 1, the animals were randomly divided into a total of 8 groups (N=5), one group was treated every day, and 3 animals were selected in each group for measuring cerebral blood flows.
If the hind paws of the mice had no response when clamped with dissecting forceps, they were transferred to an anesthesia mask, and the isoflurane concentration would be increased to 1.5%. A thermostat and an anal temperature probe were used to maintain intraoperative body temperatures of the mice near 37° C. […]
Measurement of cerebral blood flow: the head of each mouse was fixed under a brain stereotaxic instrument, the head hair of the mouse was shaved, and an incision was made in the middle. […] Optical fibers of a laser Doppler flow meter were fixed with glue at coordinates of Bregma AP 1.0 mm and ML 5.0 mm, and the blood flow changes during MCA surgery were recorded. […]
• Body weight: the body weights of the mice on the day before surgery and 24 h after surgery were recorded. • Neurological function scoring: Longa behavioral scoring was performed at 2 h and 24 h after surgery. […]
Each mouse was tested for forelimb grip 24 h before surgery and 24 h after surgery. […] The grip peaks were recorded, repeatedly measured for three times, and averaged. […]

[5] = tested on: SMPs (submitochondrial particles); test: Catalytic activity of SMPs (NADH dehydrogenation); format: biochemical; conditions: Rotenone 2 μM, 10 min, 500 μM NADH
Protocol: Experiment 9. Detection of Small Molecule Compounds that Facilitated the Catalytic Activity of SMPs (Submitochondrial Particles) • Experimental and analytical method: HEK293 cells were cultured at 5% CO2, and purified to obtain mitocondria, which were sonicated to obtain SMPs (submitochondrial granules). SMPs were incubated with different concentrations of small molecule compounds or a control drug (Rotenone, 2 μM) for 10 min, and then added with 500 μM of NADH. The absorbance of NADH was detected by an Enspire multi-mode microplate reader, an enzyme activity curve with the decrease of NADH concentration catalyzed by SMPs was plotted, and a maximum reaction rate of SMPs was calculated by linear fitting. The addition of 1 mM FeCN to a normal NADH catalytic system of SMPs could cause an electronic pathway from NADH to coenzyme Q to be short-circuited.

[6] = tested on: transgenic neutrophil fluorescent zebrafishes; test: Anti-inflammatory effect on LPS-induced inflammatory zebrafish; format: in vivo
Protocol: (§1) LPS was used to treat normal 3 dpf transgenic neutrophil fluorescent zebrafishes in a yolk sac injection, and a zebrafish inflammation model was established.
Transgenic neutrophil fluorescent zebrafishes (3 dpf), well developed and consistent in stage on 3 days after fertilization, were picked under a microscope and placed in a six-well plate, with 30 zebrafishes being randomly picked for each well at a capacity of 3 mL in each well. A zebrafish inflammation model was established by administrating LPS in a yolk sac injection. “Embodiment 5” and “Embodiment 6” were respectively dissolved with water, wherein the concentrations were 0.28 μM, 0.83 μM and 2.5 μM, respectively. The concentration of indomethacin was 80 μM. Meanwhile, a normal control group (i.e., zebrafishes were treated with fish-farming water) and a model control group were set, and incubated in a 28° C. incubator for 3 h. 10 zebrafishes were randomly selected from each group, and observed and photographed under a fluorescence microscope, and the photos were saved. Nikon NIS-Elements D 3.10 advanced image processing software was used for image analysis, the number (N) of inflammatory neutrophils in zebrafish was calculated, and the statistical processing results were expressed as mean±SE. The statistical analysis results of the number of inflammatory neutrophils in zebrafish were used to evaluate whether “Embodiment 5” and “Embodiment 6” had significant anti-inflammatory effects on LPS-induced inflammatory zebrafish, respectively. A formula for calculating the anti-inflammatory effects of “Embodiment 5” and “Embodiment 6” was as follows: […]

physchem = conditions: organic solvent or mixture
[7] = tested on: transgenic neutrophil fluorescent zebrafishes; test: Maximum tolerated concentration (MTC) in LPS-induced inflammation zebrafish; format: in vivo; conditions: for Death count / Death rate (%): n = 30; for If precipitation occurred?: fish-farming water
Excerpt: Transgenic neutrophil fluorescent zebrafishes were matched and propagated naturally in pairs. The age was 3 days after fertilization (3 dpf), and there was a total of 810 zebrafishes, with 30 zebrafishes per experimental group. The purposes were to determine maximum tolerated concentrations (MTC) of “Embodiment 5” and “Embodiment 6” in an LPS-induced inflammation experiment, and evaluate anti-inflammatory effects of “Embodiment 5” and “Embodiment 6” on LPS-induced inflammations.
as §1
Transgenic neutrophil fluorescent zebrafishes (3 dpf), well developed and consistent in stage on 3 days after fertilization, were picked under a microscope and placed in a six-well plate, with 30 zebrafishes being randomly picked for each well at a capacity of 3 mL in each well. A zebrafish inflammation model was established by administrating LPS in a yolk sac injection. “Embodiment 5” and “Embodiment 6” were respectively dissolved with water, wherein the concentrations were 0.625 μM, 1.25 μM, 2.5 μM, 5 μM, 10 μM, 50 μM, 100 μM and 200 μM, respectively. Meanwhile, anormal control group (i.e., zebrafishes were treated with fish-farming water) and a model control group were set, and cultured in a 28° C. incubator for 3 h, and the death of zebrafishes was then observed and recorded. The number of dead zebrafishes in each experimental group was counted, and the maximum tolerated concentrations (MTCs) of zebrafishes in “Embodiment 5” and “Embodiment 6” were determined.

[8] = concentration 0.625 (table head μg/mL; text μM)
[9] = concentration 0.625 (table head μg/mL; text μM), 3 h
[10] = concentration 1.25 (table head μg/mL; text μM)
[11] = concentration 1.25 (table head μg/mL; text μM), 3 h
[12] = concentration 2.5 (table head μg/mL; text μM)
[13] = concentration 2.5 (table head μg/mL; text μM), 3 h
[14] = concentration 5 (table head μg/mL; text μM), 3 h
[15] = concentration 10 (table head μg/mL; text μM), 3 h
[16] = concentration 50 (table head μg/mL; text μM), 3 h
[17] = concentration 100 (table head μg/mL; text μM), 3 h
[18] = concentration 200 (table head μg/mL; text μM), 3 h

Compound: C[C@H]1CC[C@@]2(OC1)O[C@H]1C[C@H]3[C@@H]4CC[C@@H]5CC(NC(=O)CC(=O)N6CC(N7CCOCC7)C6)CC[C@]5(C)C4CC[C@]3(C)[C@H]1[C@@H]2C (stereo partly drawn) [Embodiment 23]
- memory on electric shock (latency before entering the dark box) [1]: could effectively enhance the memory

Compound: CCN1CCN(C2CCN(C(=O)CC(=O)N[C@@H]3CC[C@]4(C)C5CC[C@]6(C)[C@@H]7[C@H](C[C@H]6[C@@H]5CC[C@@H]4C3)O[C@]3(CC[C@H](C)CO3)[C@H]7C)CC2)CC1 (stereo partly drawn) [Embodiment 25B]
- number of TH-positive cells in the substantia nigra [2]: only the Embodiment 13B group of three small modules had statistically significant differences
- tumor killing effect (in-vivo fluorescence intensity) [3]: relatively good tumor killing effects

Compound: CC1=NN(c2ccccc2)C(=O)C1 [Edaravone]
- forelimb grip strength ([4]; Edaravone 10 mg/kg IP, NO. 2 60 mg/kg PO, NO. 3-6 80 mg/kg PO): significant difference
- volume of encephaledema (TTC staining) ([4]; doses as Table 6): significant difference

Compound: C=C(C)[C@H]1Cc2c(ccc3c2O[C@@H]2COc4cc(OC)c(OC)cc4[C@@H]2C3=O)O1 [Rotenone]
- dehydrogenation reaction of NADH by SMPs [5]: completely blocked

Compound: C[C@H]1CC[C@@]2(OC1)O[C@H]1C[C@H]3[C@@H]4CC[C@@H]5CC(NC(=O)CC(=O)N6CCN(C)CC6)CC[C@]5(C)[C@H]4CC[C@]3(C)[C@H]1[C@@H]2C (stereo partly drawn) [Embodiment 5]
- Inflammation resolution (%) / anti-inflammatory effect ([6]; 0.28 μM): 33%
- Inflammation resolution (%) / anti-inflammatory effect ([6]; 0.83 μM): 61%
- Inflammation resolution (%) / anti-inflammatory effect ([6]; 2.5 μM): 67%
- anti-inflammatory effects on inflammatory zebrafish (in words) ([6]; 0.28 to 2.5 μM, P<0.001 vs model control): obvious anti-inflammatory effects
- solubility (physchem): 20 mM (≈ 11.7 mg/mL)
- Toxicity [7, 8]: No obvious toxicity
- Death count [7, 9]: 0
- Death rate (%) [7, 9]: 0%
- If precipitation occurred? [7, 8]: No
- Toxicity [7, 10]: No obvious toxicity
- Death count [7, 11]: 0
- Death rate (%) [7, 11]: 0%
- If precipitation occurred? [7, 10]: No
- Toxicity [7, 12]: normal state; also recorded: No obvious toxicity
- Death count [7, 13]: 0
- Death rate (%) [7, 13]: 0%
- If precipitation occurred? [7, 12]: not precipitated and No
- Death count [7, 14]: 3
- Death rate (%) [7, 14]: 10%
- If precipitation occurred? ([7]; concentration 5 (table head μg/mL; text μM)): No
- Death count [7, 15]: 30
- Death rate (%) [7, 15]: 100%
- If precipitation occurred? ([7]; concentration 10 (table head μg/mL; text μM)): No
- Death count [7, 16]: 30
- Death rate (%) [7, 16]: 100%
- If precipitation occurred? ([7]; concentration 50 (table head μg/mL; text μM)): No
- Death count [7, 17]: 30
- Death rate (%) [7, 17]: 100%
- If precipitation occurred? ([7]; concentration 100 (table head μg/mL; text μM)): No
- Death count [7, 18]: 30
- Death rate (%) [7, 18]: 100%
- If precipitation occurred? ([7]; concentration 200 (table head μg/mL; text μM)): No
- maximum tolerated concentration (MTC) ([7]; in the evaluation of the anti-inflammatory effect, LPS zebrafish, 3 h): 2.5 µM
